# Data taken from the supplement of paper PMC10307832.
# How the values were obtained:
# Assay in all cases: relative viability (nuclei count vs DMSO), 5 days (fraction); higher = more cells survive
# PC-3 [JPC-3] = tested on: PC-3 [JPC-3]
# Summary of the method: (§1)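 A single step with final 0.05% Triton X-100, 1% formaldehyde and 1 ug/ml Hoechst fixed the cells and stained nuclei 5 days after treatment. Lung cancer cell lines in 1536-well plates had been treated by pin tool the day after seeding with one drug alone or a fixed anchor-drug dose plus five library-drug doses (not always all listed) in √10 steps, and nuclei were counted on 4× images. Relative viability is the ratio of nuclei in treated wells to nuclei in vehicle wells, taken as the median of duplicate plates.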
# NCI-H520 = tested on: NCI-H520
# Summary of the method: as §1
# NCI-H1755 = tested on: NCI-H1755
# Summary of the method: as §1
# LK-2 = tested on: LK-2
# Summary of the method: as §1
# NCI-H1355 = tested on: NCI-H1355
# Summary of the method: as §1
# NCI-H2228 = tested on: NCI-H2228
# Summary of the method: as §1
# NCI-H322M = tested on: NCI-H322M
# Summary of the method: as §1
# NCI-H1975 = tested on: NCI-H1975
# Summary of the method: as §1
# NCI-H661 = tested on: NCI-H661
# Summary of the method: as §1
# LCLC-97TM1 = tested on: LCLC-97TM1
# Summary of the method: as §1
# HCC-15 = tested on: HCC-15
# Summary of the method: as §1
# EKVX = tested on: EKVX
# Summary of the method: as §1
# NCI-H2405 = tested on: NCI-H2405
# Summary of the method: as §1
# RERF-LC-KJ = tested on: RERF-LC-KJ
# Summary of the method: as §1
# HCC-827 = tested on: HCC-827
# Summary of the method: as §1
# NCI-H1734 = tested on: NCI-H1734
# Summary of the method: as §1
# PC-14 = tested on: PC-14
# Summary of the method: as §1
# NCI-H1563 = tested on: NCI-H1563
# Summary of the method: as §1
# H3255 = tested on: H3255
# Summary of the method: as §1
# CAL-12T = tested on: CAL-12T
# Summary of the method: as §1
# NCI-H2342 = tested on: NCI-H2342
# Summary of the method: as §1
# NCI-H1650 = tested on: NCI-H1650
# Summary of the method: as §1
smiles,measurement,setting,value
COc1cc2nccc(Oc3ccc(NC(=O)Nc4cc(C)on4)c(Cl)c3)c2cc1OC [Tivozanib] + N=C(N)NC(=N)NCCc1ccccc1 [Phenformin] (partner 250 µM),relative viability,PC-3 [JPC-3]; first compound 0.005 µM,0.477
same,relative viability,PC-3 [JPC-3]; first compound 0.01581 µM,0.468
same,relative viability,PC-3 [JPC-3]; first compound 0.05 µM,0.516
same,relative viability,PC-3 [JPC-3]; first compound 0.1581 µM,0.427
same,relative viability,PC-3 [JPC-3]; first compound 0.5 µM,0.481
same,relative viability,NCI-H520; first compound 0.005 µM,0.57
same,relative viability,NCI-H520; first compound 0.01581 µM,0.539
same,relative viability,NCI-H520; first compound 0.05 µM,0.631
same,relative viability,NCI-H520; first compound 0.1581 µM,0.311
same,relative viability,NCI-H520; first compound 0.5 µM,0.348
same,relative viability,NCI-H1755; first compound 0.005 µM,0.585
same,relative viability,NCI-H1755; first compound 0.01581 µM,0.605
same,relative viability,NCI-H1755; first compound 0.05 µM,0.631
same,relative viability,NCI-H1755; first compound 0.1581 µM,0.644
same,relative viability,NCI-H1755; first compound 0.5 µM,0.459
same,relative viability,LK-2; first compound 0.005 µM,0.459
same,relative viability,LK-2; first compound 0.01581 µM,0.457
same,relative viability,LK-2; first compound 0.05 µM,0.512
same,relative viability,LK-2; first compound 0.1581 µM,0.283
same,relative viability,LK-2; first compound 0.5 µM,0.199
same,relative viability,NCI-H1355; first compound 0.005 µM,0.413
same,relative viability,NCI-H1355; first compound 0.01581 µM,0.432
same,relative viability,NCI-H1355; first compound 0.05 µM,0.481
same,relative viability,NCI-H1355; first compound 0.1581 µM,0.43
same,relative viability,NCI-H1355; first compound 0.5 µM,0.382
same,relative viability,NCI-H2228; first compound 0.005 µM,0.306
same,relative viability,NCI-H2228; first compound 0.01581 µM,0.283
same,relative viability,NCI-H2228; first compound 0.05 µM,0.325
same,relative viability,NCI-H2228; first compound 0.1581 µM,0.288
same,relative viability,NCI-H2228; first compound 0.5 µM,0.406
same,relative viability,NCI-H322M; first compound 0.005 µM,0.721
same,relative viability,NCI-H322M; first compound 0.01581 µM,0.82
same,relative viability,NCI-H322M; first compound 0.05 µM,0.776
same,relative viability,NCI-H322M; first compound 0.1581 µM,0.689
same,relative viability,NCI-H322M; first compound 0.5 µM,0.655
same,relative viability,NCI-H1975; first compound 0.005 µM,0.398
same,relative viability,NCI-H1975; first compound 0.01581 µM,0.429
same,relative viability,NCI-H1975; first compound 0.05 µM,0.397
same,relative viability,NCI-H1975; first compound 0.1581 µM,0.423
same,relative viability,NCI-H1975; first compound 0.5 µM,0.395
same,relative viability,NCI-H661; first compound 0.005 µM,0.264
same,relative viability,NCI-H661; first compound 0.01581 µM,0.277
same,relative viability,NCI-H661; first compound 0.05 µM,0.277
same,relative viability,NCI-H661; first compound 0.1581 µM,0.278
same,relative viability,NCI-H661; first compound 0.5 µM,0.249
same,relative viability,LCLC-97TM1; first compound 0.005 µM,0.423
same,relative viability,LCLC-97TM1; first compound 0.01581 µM,0.49
same,relative viability,LCLC-97TM1; first compound 0.05 µM,0.417
same,relative viability,LCLC-97TM1; first compound 0.1581 µM,0.473
same,relative viability,LCLC-97TM1; first compound 0.5 µM,0.395
same,relative viability,HCC-15; first compound 0.005 µM,0.421
same,relative viability,HCC-15; first compound 0.01581 µM,0.476
same,relative viability,HCC-15; first compound 0.05 µM,0.5
same,relative viability,HCC-15; first compound 0.1581 µM,0.581
same,relative viability,HCC-15; first compound 0.5 µM,0.426
same,relative viability,EKVX; first compound 0.005 µM,0.214
same,relative viability,EKVX; first compound 0.01581 µM,0.228
same,relative viability,EKVX; first compound 0.05 µM,0.232
same,relative viability,EKVX; first compound 0.1581 µM,0.243
same,relative viability,EKVX; first compound 0.5 µM,0.236
same,relative viability,NCI-H2405; first compound 0.005 µM,0.418
same,relative viability,NCI-H2405; first compound 0.01581 µM,0.401
same,relative viability,NCI-H2405; first compound 0.05 µM,0.436
same,relative viability,NCI-H2405; first compound 0.1581 µM,0.373
same,relative viability,NCI-H2405; first compound 0.5 µM,0.375
same,relative viability,RERF-LC-KJ; first compound 0.005 µM,0.402
same,relative viability,RERF-LC-KJ; first compound 0.01581 µM,0.375
same,relative viability,RERF-LC-KJ; first compound 0.05 µM,0.468
same,relative viability,RERF-LC-KJ; first compound 0.1581 µM,0.411
same,relative viability,RERF-LC-KJ; first compound 0.5 µM,0.382
same,relative viability,HCC-827; first compound 0.005 µM,0.402
same,relative viability,HCC-827; first compound 0.01581 µM,0.434
same,relative viability,HCC-827; first compound 0.05 µM,0.391
same,relative viability,HCC-827; first compound 0.1581 µM,0.43
same,relative viability,HCC-827; first compound 0.5 µM,0.452
same,relative viability,NCI-H1734; first compound 0.005 µM,0.343
same,relative viability,NCI-H1734; first compound 0.01581 µM,0.365
same,relative viability,NCI-H1734; first compound 0.05 µM,0.371
same,relative viability,NCI-H1734; first compound 0.1581 µM,0.362
same,relative viability,NCI-H1734; first compound 0.5 µM,0.383
same,relative viability,PC-14; first compound 0.005 µM,0.443
same,relative viability,PC-14; first compound 0.01581 µM,0.656
same,relative viability,PC-14; first compound 0.05 µM,0.588
same,relative viability,PC-14; first compound 0.1581 µM,0.611
same,relative viability,PC-14; first compound 0.5 µM,0.501
same,relative viability,NCI-H1563; first compound 0.005 µM,0.602
same,relative viability,NCI-H1563; first compound 0.01581 µM,0.634
same,relative viability,NCI-H1563; first compound 0.05 µM,0.696
same,relative viability,NCI-H1563; first compound 0.1581 µM,0.735
same,relative viability,NCI-H1563; first compound 0.5 µM,0.666
same,relative viability,H3255; first compound 0.005 µM,0.332
same,relative viability,H3255; first compound 0.01581 µM,0.333
same,relative viability,H3255; first compound 0.05 µM,0.354
same,relative viability,H3255; first compound 0.1581 µM,0.339
same,relative viability,H3255; first compound 0.5 µM,0.351
same,relative viability,CAL-12T; first compound 0.005 µM,0.538
same,relative viability,CAL-12T; first compound 0.01581 µM,0.554
same,relative viability,CAL-12T; first compound 0.05 µM,0.494
same,relative viability,CAL-12T; first compound 0.1581 µM,0.625
same,relative viability,CAL-12T; first compound 0.5 µM,0.558
same,relative viability,NCI-H2342; first compound 0.005 µM,0.554
same,relative viability,NCI-H2342; first compound 0.01581 µM,0.585
same,relative viability,NCI-H2342; first compound 0.05 µM,0.59
same,relative viability,NCI-H2342; first compound 0.5 µM,0.632
same,relative viability,NCI-H1650; first compound 0.005 µM,0.454
same,relative viability,NCI-H1650; first compound 0.01581 µM,0.515
same,relative viability,NCI-H1650; first compound 0.05 µM,0.486
same,relative viability,NCI-H1650; first compound 0.1581 µM,0.497
same,relative viability,NCI-H1650; first compound 0.5 µM,0.353
